Measurements from patent publication US8921267B2, “Safening 6-(trisubstituted phenyl)-4-amino-2-pyridinecarboxylate herbicide injury on cereal crops” (Dow AgroSciences LLC, priority 2008, dated 2014).

Key:
Assay type in all cases: in vivo
[1] = test system: corn poppy (Papaver rhoeas L; PAPRH); experiment: Postemergence herbicidal activity, greenhouse, visual injury: corn poppy; details: for PAPRH Ob: applied alone
Procedure: (§1) Evaluation of Postemergence Herbicidal Safening in Cereal Crops
(§2) Seeds of the desired test plant species were planted in Sun Gro MetroMix® 306 planting mixture, which typically has a pH of 6.0 to 6.8 and an organic matter content of about 30 percent, in plastic pots with a surface area of 103.2 square centimeters (cm^2). When required to ensure good germination and healthy plants, a fungicide treatment and/or other chemical or physical treatment was applied. The plants were grown for 7-36 days (d) in a greenhouse with an approximate 14-hour (h) photoperiod which was maintained at about 18° C. during the day and 17° C. during the night. Nutrients and water were added on a regular basis and supplemental lighting was provided with overhead metal halide 1000-Watt lamps as necessary. The plants were employed for testing when they reached the second or third true leaf stage.
(§3) Weighed amounts of esters (methyl) or salts (TEA [triethylammonium], K [potassium]) of 4-amino-3-chloro-6-(4-chloro-2-fluoro-3-methoxyphenyl)pyridine-2-carboxylic acid (Compound 1) were dissolved in a volume of 97:3 volume/volume (v/v) acetone/dimethylsulfoxide (DMSO) to obtain stock solutions. […] The concentrated stock solutions were diluted with an aqueous mixture of 1.5% v/v of Agri-dex crop oil concentrate to provide the appropriate application rates. Compound requirements are based upon a 12 mL application volume at a rate of 187 liters per hectare (L/ha). Stocks solutions of the safeners were prepared following the same procedure. Spray solutions of the safeners and experimental compound mixtures were prepared by adding the stock solutions to the appropriate amount of dilution solution to form a 12 mL spray solution with active ingredients in two-way combinations. Formulated compounds were applied to the plant material with an overhead Mandel track sprayer equipped with 8002E nozzles calibrated to deliver 187 L/ha over an application area of 0.503 square meters (m^2) at a spray height of 18 inches (43 centimeters (cm)) above average plant canopy. Control plants were sprayed in the same manner with the solvent blank.
(§4) The treated plants and control plants were placed in a greenhouse as described above and watered by sub-irrigation to prevent wash-off of the test compounds. After 20-22 d, the condition of the test plants as compared with that of the control plants was determined visually and scored on a scale of 0 to 100 percent where 0 corresponds to no injury and 100 corresponds to complete kill.
(§5) Colby's equation was used to determine the herbicidal effects expected from the mixtures (Colby, S. R. Calculation of the synergistic and antagonistic response of herbicide combinations. Weeds 1967, 15, 20-22.).
(§6) The following equation was used to calculate the expected activity of mixtures containing two active ingredients, A and B: Expected=A+B−(A×B/100)
(§7) A=observed efficacy of active ingredient A at the same concentration as used in the mixture.
(§8) B=observed efficacy of active ingredient B at the same concentration as used in the mixture.

[2] = test system: purple deadnettle (Lamium purpureum L; LAMPU); experiment: Postemergence herbicidal activity, greenhouse, visual injury: purple deadnettle; set-up: key: visual injury, 0–100%: 0 = no injury, 100 = complete kill
Procedure: as §1, §2, §3, §4, §5, §6, §7, §8

[3] = test system: Russian thistle (Salsola iberica L; SASKR); experiment: Postemergence herbicidal activity, greenhouse, visual injury: Russian thistle; set-up: key: visual injury, 0–100%: 0 = no injury, 100 = complete kill; details: applied alone
Procedure: as §1, §2, §3, §4, §5, §6, §7, §8

[4] = test system: chickweed (Stellaria media L; STEME); experiment: Postemergence herbicidal activity, greenhouse, visual injury: chickweed; set-up: key: visual injury, 0–100%: 0 = no injury, 100 = complete kill; details: applied alone
Procedure: as §1, §2, §3, §4, §5, §6, §7, §8

[5] = test system: cleavers (Galium aparine L; GALAP); experiment: Postemergence herbicidal activity, greenhouse, visual injury: cleavers; set-up: key: visual injury, 0–100%: 0 = no injury, 100 = complete kill; details: applied alone
Procedure: as §1, §2, §3, §4, §5, §6, §7, §8

[6] = test system: wild pansy (Viola tricolor L; VIOTR); experiment: Postemergence herbicidal activity, greenhouse, visual injury: wild pansy; set-up: key: visual injury, 0–100%: 0 = no injury, 100 = complete kill; details: applied alone
Procedure: as §1, §2, §3, §4, §5, §6, §7, §8

[7] = test system: barley (Hordeum vulgare L; HORVS); experiment: Postemergence herbicidal safening, greenhouse, visual injury: barley; details: applied alone
Procedure: as §1, §2, §3, §4, §5, §6, §7, §8

[8] = test system: wild buckwheat (Polygonum convolvulus L; POLCO); experiment: Postemergence herbicidal activity, greenhouse, visual injury: wild buckwheat; details: applied alone
Procedure: as §1, §2, §3, §4, §5, §6, §7, §8

[9] = test system: wheat (Triticum aestivum L; TRZAS); experiment: Postemergence herbicidal safening, greenhouse, visual injury: wheat; details: applied alone
Procedure: as §1, §2, §3, §4, §5, §6, §7, §8

[10] = test system: bird's-eye speedwell (Veronica persica L; VERPE); experiment: Postemergence herbicidal activity, greenhouse, visual injury: bird's-eye speedwell; set-up: key: visual injury, 0–100%: 0 = no injury, 100 = complete kill; details: applied alone
Procedure: as §1, §2, §3, §4, §5, §6, §7, §8

Cc1ccc(NC(=O)NC(C)(C)c2ccccc2)cc1 [Daimuron]
PAPRH Ob (Observed values) ([1]; safener 4.4 g/ha alone): 0 | PAPRH Ob (Observed values) ([1]; safener 8.8 g/ha alone): 0 | PAPRH Ob (Observed values) ([1]; safener 17.5 g/ha alone): 0 | PAPRH Ob (Observed values) ([1]; safener 35 g/ha alone): 0 | LAMPU Ob (Observed values) ([2]; safener 4.4 g/ha alone): 0 | LAMPU Ob (Observed values) ([2]; safener 8.8 g/ha alone): 0 | LAMPU Ob (Observed values) ([2]; safener 17.5 g/ha alone): 0 | LAMPU Ob (Observed values) ([2]; safener 35 g/ha alone): 0

O=C(O)c1nc(C(Cl)(Cl)Cl)n(-c2ccc(Cl)cc2Cl)n1 [Fenchlorazole]
PAPRH Ob (Observed values) ([1]; safener 4.4 g/ha alone): 0 | PAPRH Ob (Observed values) ([1]; safener 8.8 g/ha alone): 0 | PAPRH Ob (Observed values) ([1]; safener 17.5 g/ha alone): 0 | PAPRH Ob (Observed values) ([1]; safener 35 g/ha alone): 0 | LAMPU Ob (Observed values) ([2]; safener 4.4 g/ha alone): 0 | LAMPU Ob (Observed values) ([2]; safener 8.8 g/ha alone): 0 | LAMPU Ob (Observed values) ([2]; safener 17.5 g/ha alone): 0 | LAMPU Ob (Observed values) ([2]; safener 35 g/ha alone): 0

FC(F)(F)C(=NOCC1OCCO1)c1ccc(Cl)cc1 [Fluxofenim]
SASKR Ob ([3]; 17.5 g/ha): 0 | SASKR Ob ([3]; 35 g/ha): 0 | SASKR Ob ([3]; 70 g/ha): 0 | SASKR Ob ([3]; 140 g/ha): 0 | STEME Ob ([4]; 17.5 g/ha): 0 | STEME Ob ([4]; 35 g/ha): 0 | STEME Ob ([4]; 70 g/ha): 0 | STEME Ob ([4]; 140 g/ha): 0 | GALAP Ob ([5]; 17.5 g/ha): 0 | GALAP Ob ([5]; 35 g/ha): 0 | GALAP Ob ([5]; 70 g/ha): 0 | GALAP Ob ([5]; 140 g/ha): 0 | VIOTR Ob ([6]; 17.5 g/ha): 0 | VIOTR Ob ([6]; 35 g/ha): 0 | VIOTR Ob ([6]; 70 g/ha): 0 | VIOTR Ob ([6]; 140 g/ha): 0 | HORVS Ob ([7]; 17.5 g/ha): 0% | HORVS Ob ([7]; 35 g/ha): 0% | HORVS Ob ([7]; 70 g/ha): 0% | HORVS Ob ([7]; 140 g/ha): 0% | PAPRH Ob ([1]; 17.5 g/ha): 0 | PAPRH Ob ([1]; 35 g/ha): 0 | PAPRH Ob ([1]; 70 g/ha): 0 | PAPRH Ob ([1]; 140 g/ha): 0 | POLCO Ob ([8]; 17.5 g/ha): 0 | POLCO Ob ([8]; 35 g/ha): 0 | POLCO Ob ([8]; 70 g/ha): 0 | POLCO Ob ([8]; 140 g/ha): 0 | TRZAS Ob ([9]; 17.5 g/ha): 0% | TRZAS Ob ([9]; 35 g/ha): 0% | TRZAS Ob ([9]; 70 g/ha): 0% | TRZAS Ob ([9]; 140 g/ha): 0% | VERPE Ob ([10]; 17.5 g/ha): 0 | VERPE Ob ([10]; 35 g/ha): 0 | VERPE Ob ([10]; 70 g/ha): 0 | VERPE Ob ([10]; 140 g/ha): 0

O=C1OC(=O)c2cccc3cccc1c23 [Naphthalic anhydride]
SASKR Ob ([3]; 17.5 g/ha): 0 | SASKR Ob ([3]; 35 g/ha): 0 | SASKR Ob ([3]; 70 g/ha): 0 | SASKR Ob ([3]; 140 g/ha): 0 | STEME Ob ([4]; 17.5 g/ha): 0 | STEME Ob ([4]; 35 g/ha): 0 | STEME Ob ([4]; 70 g/ha): 0 | STEME Ob ([4]; 140 g/ha): 0 | GALAP Ob ([5]; 17.5 g/ha): 0 | GALAP Ob ([5]; 35 g/ha): 0 | GALAP Ob ([5]; 70 g/ha): 0 | GALAP Ob ([5]; 140 g/ha): 0 | VIOTR Ob ([6]; 17.5 g/ha): 0 | VIOTR Ob ([6]; 35 g/ha): 0 | VIOTR Ob ([6]; 70 g/ha): 0 | VIOTR Ob ([6]; 140 g/ha): 0 | PAPRH Ob ([1]; 17.5 g/ha): 0 | PAPRH Ob ([1]; 35 g/ha): 0 | PAPRH Ob ([1]; 70 g/ha): 0 | PAPRH Ob ([1]; 140 g/ha): 0 | POLCO Ob ([8]; 17.5 g/ha): 0 | POLCO Ob ([8]; 35 g/ha): 0 | POLCO Ob ([8]; 70 g/ha): 0 | POLCO Ob ([8]; 140 g/ha): 0 | VERPE Ob ([10]; 17.5 g/ha): 0 | VERPE Ob ([10]; 35 g/ha): 0 | VERPE Ob ([10]; 70 g/ha): 0 | VERPE Ob ([10]; 140 g/ha): 0
